Laboratory results as given in patent US20030044413A1, “Methods of limiting apoptosis of cells” (Regents of the University of Minnesota, priority 1998, published 2003).

Assays:
HuH-7 cells = assay: Annexin V-biotin assay (phosphatidylserine externalization); type: cell-based, human; conditions: 100 μM, 6 h
Description: Annexin V-Biotin assay. The annexin V-biotin apoptosis assay was performed on HuH-7 cells according to the manufacturer's recommendations (R & D Systems). […] The chromogenic signal generated from the binding of annexin V to exposed phosphatidylserine moieties was read at 450 nm using a microplate reader (Molecular Devices, Co., Menlo Park, Calif.).

[1] = Bile acid quantification by gas chromatography in primary rat hepatocytes; type: in vitro ADME; conditions: 6 h
Description: (§1) In parallel experiments, isolated rat hepatocytes (2×10^7 cells) and HuH-7 cells (2×10^6 cells) were incubated with 50 μM or 100 μM, respectively, of DCA, UDCA or DCA+UDCA for 6 h. Cells were washed 3 times with PBS, pH 7.4, harvested, centrifuged at 800×g for 5 min in a JS-4.0 Beckman rotor (Beckman Instruments, Inc., Schaumburg, Ill.) at 4° C., washed again, and the final pellet was flash-frozen in liquid nitrogen. Cells were then analyzed for intracellular bile acid concentrations by gas chromatography.
(§2) Bile acid quantification by gas chromatography. […] Quantification of bile acids was achieved using gas chromatography, by comparing the peak height response of the individual bile acids with the peak height response obtained from the internal standard, nordeoxycholic acid, which was added to each sample prior to bile acid extraction.

primary rat hepatocytes = assay: DCA-induced apoptosis, Hoechst staining, primary rat hepatocytes; type: cell-based
From the text: Cell culture and preparation of rat primary hepatocytes. Rat primary hepatocytes were isolated from male Sprague-Dawley rats (200-250 g) by collagenase perfusion as described previously (Mariash et al., J. Biol. Chem, 261, 9583-9586 (1986)). Briefly, rats were aneshtesized with phenobarbitol and the livers were perfused with 0.05% collagenase. Hepatocyte suspensions were obained by passing digested livers through 0.125 mm gauze and washing cells in modified Eagles' medium (MEM, Life Technologies, Inc., Grand Island, N.Y.). […] After isolation, hepatocytes were resuspended in William's E medium (Life Technologies, Inc., Grand Island, N.Y.) supplemented with 26 mM sodium bicarbonate, 23 mM HEPES, 0.01 U/ml insulin, 2 mM L-glutamine, 10 nM dexamethasone, 5.5 mM glucose, 100 U/ml penicillin and 100 U/ml streptomycin and then 1.0×10^6 cells were plated on 35×10 mm […] tissue culture dishes (Becton Dickinson Labware, Lincoln Park, N.J.). The cells were maintained at 37° C. in a humidified atmosphere of 5% CO2 for 3 h. Plates were then washed with medium to remove dead cells, and medium containing 10% heat-inactivated FBS (55° C. for 30 min) was added (Atlanta Biologicals, Inc., Norcross, Ga.). Aliquots of 1.0×10^5 human (HuH-7) hepatoma cells were plated on 35×10 mm tissue culture dishes (Becton Dickinson Labware) and maintained at 37° C. in Dulbecco's MEM (Atlanta Biologicals, Inc.) supplemented with 10% FBS, 100 U/ml penicillin and 100 u/ml streptomycin for 3 h prior to incubation with bile acids.
Incubation of cells with bile acids. […] The medium was gently removed at the indicated time points and scored for nonviable cells by trypan blue dye exclusion. […]
(§3) Morphological evaluation of apoptosis. […] Fluorescence was visualized with a Zeiss standard fluorescence microscope (Carl Zeiss, Inc., Thornwood, N.Y.). […] Stained nuclei were scored by blind analysis and categorized according to the condensation and staining characteristics of chromatin. […] Three fields per dish of approximately 500 nuclei were counted; mean values are expressed as the percent of apoptotic nuclei.

[2] = Bile acid quantification by gas chromatography in HuH-7 cells; type: in vitro ADME, human; conditions: 6 h
Description: as §1, §2

HeLa cells = assay: Okadaic acid-induced apoptosis, HeLa cells; type: cell-based, human
Description: HuH-7 cells were treated with 1 nM TGF-β1, 100 μM of either hyodeoxycholic acid, taurocholic acid, tauroursodeoxycholic acid (Sigma Chemical Co.) or glycoursodeoxycholic acid (Steraloids Inc., Wilton, N.H.), or a combination of TGF-β1 plus the individual bile acids for 72 h. HeLa and Cos-7 cells were incubated with 50 nM okadaic acid, 100 μM of either tauroursodeoxycholic acid or glycoursodeoxycholic acid, or a combination of okadaic acid plus the individual bile acids for 24 h. In the combination groups, cells were pretreated with the bile acid alone for 60 min prior to incuation with TGF-β1 or okadaic acid. In all studies, the medium was gently removed at the indicated times and scored for nonviable cells. The attached cells were fixed for morphologic evaluation of apoptosis.
as §3, with “apoptosis. Morphology was performed as described previously (Oberhammer et al., Proc. Natl. Acad. Sci. USA 89, 5408-5412 (1992)).” for “apoptosis.”

PARP = PARP cleavage in rat hepatocytes; type: cell-based; conditions: pretreatment with UDCA; DCA, TGF-β1 or okadaic acid
From the text: Determination of PARP cleavage. For the determination of PARP cleavage, total protein were separated on a 8% SDS-polyacrylamide electrophoresis gel. Blots were probed with primary polyclonal antibody to PARP (Santa Cruz Biotechnology).

astrocytes = assay: Unconjugated bilirubin-induced apoptosis in astrocytes; type: cell-based, rat; conditions: coincubation of UCB with UDCA
[3] = incubated with 50 μM DCA and UDCA combined
[4] = incubated with 50 μM of the individual bile acid
[5] = coincubation with 100 μM DCA and UDCA
[6] = incubated with 100 μM of the individual bile acid

SMILES	optical density at 450 nm (annexin V binding) relative to controls (HuH-7 cells)	intracellular concentration of the bile acid [1, 3]	intracellular concentration of the bile acid [1, 4]	percentage of apoptotic cells, increase over control (primary rat hepatocytes; 50 μM DCA, 2 h)	intracellular concentration of the bile acid [2, 5]	intracellular concentration of the bile acid [2, 6]	percent apoptosis (HeLa cells; okadaic acid + UDCA)	prevention of PARP cleavage (PARP)	inhibition of apoptosis (astrocytes)	cell viability (primary rat hepatocytes; 50 μM DCA + 50 μM UDCA, 6 h)	Inhibition % Apoptosis (primary rat hepatocytes; inducer DCA, hepatocytes, inhibition by UDCA)	percent apoptosis (HeLa cells; okadaic acid alone)
C[C@H](CCC(=O)O)[C@H]1CC[C@H]2[C@@H]3CC[C@@H]4C[C@H](O)CC[C@]4(C)[C@H]3C[C@H](O)[C@]12C [DCA, deoxycholic acid]	0.27±0.06	380.3±32.0 nmol/10^8 cells	49.5±9.9 nmol/10^8 cells	8 fold	31.7 ± 15.0 nmol	28.8±13.3 nmol/10^8cells	–	–	–	–	–	–
C[C@H](CCC(=O)O)[C@H]1CC[C@H]2[C@@H]3[C@@H](O)C[C@@H]4C[C@H](O)CC[C@]4(C)[C@H]3CC[C@]12C [UDCA, ursodeoxycholic acid]	0.08±0.02	263.8±39.3 nmol/10^8 cells	306.0±135.1 nmol/10^8 cells	–	45.5 ± 21.5 nmol	204.7±97.2 nmol/10^8cells	20.5±7.1%	60%	over 50%	88.5±4.9%	90.9 ± 4.6%	–
C=C1[C@@H](O)[C@@H]2O[C@]3(CC[C@H](/C=C/[C@@H](C)[C@@H]4CC(C)=C[C@@]5(O[C@H](C[C@@](C)(O)C(=O)O)CC[C@H]5O)O4)O3)CC[C@H]2O[C@@H]1[C@@H](O)C[C@H](C)[C@H]1O[C@@]2(CCCCO2)CC[C@H]1C [okadaic acid]	–	–	–	–	–	–	–	–	–	–	–	50.0±14.9%
